Results taken from ChEMBL document CHEMBL1134018, “Study of aminoglycoside-nucleic acid interactions by an HPLC method” (Bioorg Med Chem Lett, 2001).

How the values were obtained:
[1] = test system: Nucleic Acid; assay: Percent of interaction with calf thymus DNA (activated type XV) at a concentration of 35 uM; assay type: functional; conditions: Bos taurus
[2] = test system: Nucleic Acid; assay: Percent of interaction with wheat germ tRNA (type V) at a concentration of 35 uM; assay type: functional; conditions: Triticum aestivum

| SMILES | DNA peak exclusion [1] | tRNA peak exclusion [2] |
| --- | --- | --- |
| NC[C@@H]1O[C@@H](O[C@H]2[C@H](O)[C@@H](O[C@H]3O[C@H](CO)[C@@H](O)[C@H](N)[C@H]3O)[C@H](N)C[C@@H]2N)[C@@H](O)[C@H](O)[C@H]1O | 67.3% | 56% |
| CCN[C@@H]1C[C@H](N)[C@@H](O[C@H]2OC(CN)=CC[C@H]2N)[C@H](O)[C@H]1O[C@H]1OC[C@](C)(O)[C@H](NC)[C@H]1O | 68.8% | 55.1% |
| NC[C@@H]1O[C@H](O[C@H]2[C@@H](O)[C@H](O[C@@H]3[C@@H](O)[C@H](N)C[C@H](N)[C@H]3O[C@H]3O[C@H](CN)[C@@H](O)[C@H](O)[C@H]3N)O[C@@H]2CO)[C@H](N)[C@@H](O)[C@@H]1O | 100% | 77.8% |
| NC1C[C@@H](N)C(O)[C@@H](O)[C@@H]1O (single isomer, unassigned) | – | 30.3% |
| NC(Cc1ccccc1)C(=O)NCC1O[C@@H](O[C@@H]2C(N)C[C@@H](N)[C@@H](O)C2O)[C@@H](N)C(O)[C@@H]1O (stereo partly drawn) | 100% | 100% |
| NC[C@H]1OC(O[C@H]2[C@H](O)C(O)[C@H](N)C[C@@H]2N)C(N)[C@@H](O)[C@@H]1O (single isomer, unassigned) | 40% | 47.3% |
| CN[C@@H]1[C@H](O[C@H]2[C@H](O[C@H]3[C@H](O)[C@@H](O)[C@H](N=C(N)N)[C@@H](O)[C@@H]3N=C(N)N)O[C@@H](C)[C@]2(O)C=O)O[C@@H](CO)[C@H](O)[C@H]1O | 44.3% | 52.5% |
